Measured values from paper PMC6272192, “Synthesis and Biological Evaluation of N-Alkyl-3-(alkylamino)-pyrazine-2-carboxamides” (Molecules, 2015).
≈ marks a conversion by molar mass, not a printed value.

Columns and labels:
[1] = tested on: aromatic amino acids in spinach chloroplasts; experiment: fluorescence of aromatic amino acids in spinach chloroplasts; format: biochemical, Spinacia oleracea L.; details: excitation 275 nm, chlorophyll 10 mg/L
Procedure: The fluorescence emission spectra of aromatic amino acids (AAA) in spinach chloroplasts were recorded on fluorescence spectrophotometer F-2000 (Hitachi, Tokyo, Japan) using excitation wavelength λex = 275 nm for monitoring AAA fluorescence, excitation slit 20 nm and emission slit 10 nm. The samples were kept in the dark for 2 min before measuring. The phosphate buffer used for dilution of the chloroplast suspension was the same as described above. Due to low aqueous solubility the compounds were added to chloroplast suspension in DMSO solution. The DMSO concentration in all samples was the same as in the control (10%). The chlorophyll concentration in chloroplast suspension was 10 mg/L.

[2] = determination of lipophilicity by HPLC (log k); details: HPLC capacity factor, C18 column, MeOH 70% / H2O 30%
Text: Instrumentation: Agilent Technologies 1200 SL liquid chromatograph with Diode-array Detector SL G1315C (Agilent Technologies Inc., Colorado Springs, CO, USA); pre-column ZORBAX XDB-C18 5 μm, 4 × 4 mm, Part No. 7995118-504 (Agilent Technologies Inc.) and column ZORBAX Eclipse XDB-C18 5 μm, 4.6 × 250 mm, Part No. 7995118-585 (Agilent Technologies Inc.). The separation process was controlled by Agilent ChemStation, version B.04.02 extended by spectral module (Agilent Technologies Inc.). Mobile phase consisted of MeOH (HPLC grade, 70%) and H2O (HPLC-Milli-Q Grade, 30%). Conditions: Flow rate 1.0 mL/min, sample injection volume 20 μL, column temperature 30 °C, detection wavelength 210 nm, monitor wavelength 270 nm. Retention times (tR) were measured in minutes. The dead time of the system (tD) was determined as the retention time of KI methanol solution. Capacity factors k for individual compounds were calculated according to the formula k = (tR − tD)/tD. Log k, calculated from the capacity factor k, is used as the lipophilicity index converted to log scale.

[3] = tested on: photosystem 2 photosynthetic electron transport (PET) in spinach chloroplasts; experiment: inhibition of photosynthetic electron transport (PET) in spinach chloroplasts (Hill reaction, DCPIP); format: biochemical, Spinacia oleracea L.; details: spinach chloroplasts, DCPIP photoreduction; read-out: IC50 (PET-inhibiting activity)
Procedure: Chloroplasts were prepared from spinach (Spinacia oleracea L.) according to Masarovicova and Kralova. The inhibition of photosynthetic electron transport (PET) in spinach chloroplasts was determined spectrophotometrically (Genesys 6, Thermo Electron Scientific Instruments, Madison, WI, USA), using an artificial electron acceptor 2,6-dichlorophenol-indophenol (DCPIP) according to Kralova et al., and the rate of photosynthetic electron transport (PET) was monitored as a photoreduction of DCPIP. The measurements were carried out in phosphate buffer (0.02 mol/L, pH 7.2) containing sucrose (0.4 mol/L), MgCl2 (0.005 mol/L) and NaCl (0.015 mol/L). The chlorophyll content was 30 mg/L in these experiments and the samples were irradiated (~100 W/m^2 with 10 cm distance) with a halogen lamp (250 W) using a 4 cm water filter to prevent warming of the samples (suspension temperature 22 °C). The studied compounds were dissolved in DMSO due to their limited water solubility. […] The inhibitory efficiency of the studied compounds was expressed by IC50 values, i.e., by molar concentration of the compounds causing 50% PET inhibition relative to the untreated control.

[4] = tested on: M. tuberculosis H37Rv; experiment: in vitro antimycobacterial activity, microdilution panel method; format: cell-based, Mycobacterium tuberculosis; details: Mycobacterium tuberculosis, 336 h, Middlebrook 7H9, Alamar Blue after 14 days, read-out: MIC M. tuberculosis
[5] = tested on: Staphylococcus aureus; experiment: in vitro antibacterial activity, microdilution broth method; format: cell-based
Procedure: Microdilution broth method. Antibacterial evaluation was performed against bacterial strains from Czech Collection of Microorganisms (Brno, Czech Republic) (Staphylococcus aureus CCM 4516/08, Escherichia coli CCM 4517, Pseudomonas aeruginosa CCM 1961) or clinical isolates from Department of Clinical Microbiology, University Hospital and Faculty of Medicine in Hradec Králové, Charles University in Prague, Czech Republic (Staphylococcus aureus H 5996/08-methicilin resistant (MRSA), Staphylococcus epidermidis H 6966/08, Enterococcus sp. J 14365/08, Klebsiella pneumoniae D 11750/08, Klebsiella pneumoniae J 14368/08-ESBL positive). All strains were subcultured on Mueller-Hinton agar (MHA) (Difco/Becton Dickinson, Detroit, MI, USA) at 35 °C and maintained on the same medium at 4 °C. The compounds were dissolved in DMSO, and the antibacterial activity was determined in Mueller-Hinton liquid broth (Difco/Becton Dickinson), buffered to pH 7.0. Controls consisted of medium and DMSO alone. […] The standards were neomycin, bacitracin, penicillin G, ciprofloxacin and phenoxymethylpenicilin.

SMILES	slope of dependence of aromatic amino acid fluorescence intensity (% of control) on compound concentration [1]	log k [2]	IC50 [3]	MIC [4]	MIC [5]
CCCCCNC(=O)c1nccnc1NCCCCC [Compound 27, N-Pentyl-3-(pentylamino)pyrazine-2-carboxamide]	−0.211	1.557	105 µM	> 100 µg/mL	
CCCCCCCCNc1nccnc1C(=O)NC [Compound 16, N-Methyl-3-(octylamino)pyrazine-2-carboxamide]	−0.668	1.359	64 µM	25 µg/mL (≈ 94.6 µM)	250 µM (≈ 66.1 µg/mL)
